Experimental data taken from ChEMBL document CHEMBL5678797, “AZD7762, a novel checkpoint kinase inhibitor, drives checkpoint abrogation and potentiates DNA-targeted therapies” (Mol Cancer Ther, 2008).
Active and inactive are the calls of the source. No cut-off for these calls is given here.

What was measured:
SW-620 [1] = test: Induction of cell cycle arrest in human SW620 cells assessed as increase in cdc25A level at 0.1 uM measured after 8 hrs by Western blot analysis; format: functional, cell-based
SW-620 [2] = test: Antitumor activity against human SW620 cells xenografted in athymic mouse model assessed as complete tumor regression at 50 mg/kg measured after 17 to 94 days post tumor implantation by caliper method; format: functional, organism-based; settings: time 17-94 day
SW-620 [3] = test: Antitumor activity against human SW620 cells xenografted in athymic mouse model assessed as tumor free survival at 50 mg/kg measured after 17 to 94 days post tumor implantation by caliper method; format: functional, organism-based; settings: time 17-94 day

SMILES | Activity (SW-620 [1]) | Activity (SW-620 [2]) | Activity (SW-620 [3])
Nc1ccn([C@@H]2O[C@H](CO)[C@@H](O)C2(F)F)c(=O)n1 | inactive |  | 
CCc1c2c(nc3ccc(OC(=O)N4CCC(N5CCCCC5)CC4)cc13)-c1cc3c(c(=O)n1C2)COC(=O)[C@]3(O)CC |  | inactive | inactive
